The text below walks through data of ChEMBL document CHEMBL4371033, “Highly Potent and Selective Plasmin Inhibitors Based on the Sunflower Trypsin Inhibitor-1 Scaffold Attenuate Fibrinolysis in Plasma” (J Med Chem, 2019).

pKi: −log10 of the molar value. Residues, ends and D or L forms follow the SMILES beside them.

One may read the pKi as the Ki on a negative log10 scale, so that one unit is a factor of ten.

This experiment deals with Plasminogen (Homo sapiens, UniProt P00747). Put plainly: Inhibition of human plasmin using Ac-RM(O2)YR-pNA as substrate after 30 mins.
Chain of Plasminogen (P00747 97-580 limits assumed): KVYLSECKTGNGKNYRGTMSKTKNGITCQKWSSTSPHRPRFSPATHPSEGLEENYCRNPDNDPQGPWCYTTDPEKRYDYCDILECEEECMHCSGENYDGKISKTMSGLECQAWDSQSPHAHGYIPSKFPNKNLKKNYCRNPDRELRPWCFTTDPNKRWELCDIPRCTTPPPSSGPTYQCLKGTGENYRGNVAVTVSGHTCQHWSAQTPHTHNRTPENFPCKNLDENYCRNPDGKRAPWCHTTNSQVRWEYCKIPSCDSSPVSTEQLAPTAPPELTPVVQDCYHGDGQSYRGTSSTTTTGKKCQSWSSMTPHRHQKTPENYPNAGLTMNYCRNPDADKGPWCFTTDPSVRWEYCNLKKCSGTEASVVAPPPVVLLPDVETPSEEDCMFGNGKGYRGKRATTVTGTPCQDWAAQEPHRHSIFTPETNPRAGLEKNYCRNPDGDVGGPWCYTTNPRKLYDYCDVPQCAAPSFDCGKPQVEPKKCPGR
Chain of Plasminogen (P00747 581-810 limits assumed): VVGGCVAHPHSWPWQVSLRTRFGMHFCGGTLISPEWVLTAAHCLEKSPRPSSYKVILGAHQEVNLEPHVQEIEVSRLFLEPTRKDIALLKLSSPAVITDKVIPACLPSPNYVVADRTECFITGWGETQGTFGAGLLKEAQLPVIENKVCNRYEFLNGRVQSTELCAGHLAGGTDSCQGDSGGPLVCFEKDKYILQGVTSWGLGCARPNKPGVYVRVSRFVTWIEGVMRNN
Molecule `CC[C@H](C)[C@@H]1NC(=O)[C@@H]2CCCN2C(=O)[C@@H]2CCCN2C(=O)[C@H](CCCNC(=N)N)NC(=O)[C@H](CO)NC(=O)[C@H](CCCNC(=N)N)NC(=O)[C@H](Cc2ccc(O)cc2)NC(=O)[C@@H]2CSSC[C@H](NC1=O)C(=O)N[C@@H](Cc1ccccc1)C(=O)N1CCC[C@H]1C(=O)N[C@@H](CC(=O)O)C(=O)NCC(=O)N[C@@H](CCCNC(=N)N)C(=O)N2` (HELM PEPTIDE1{C.F.P.D.G.R.C.Y.R.S.R.P.P.I}$PEPTIDE1,PEPTIDE1,1:R3-7:R3|PEPTIDE1,PEPTIDE1,1:R1-14:R2$$$V2.0) showed a pKi of 7.80.
`CC[C@H](C)[C@@H]1NC(=O)[C@@H]2CCCN2C(=O)[C@@H]2CCCN2C(=O)[C@H](CCCCN)NC(=O)[C@H](CO)NC(=O)[C@H](CCCNC(=N)N)NC(=O)[C@H](Cc2ccc(O)cc2)NC(=O)[C@@H]2CSSC[C@H](NC1=O)C(=O)N[C@@H](Cc1ccccc1)C(=O)N1CCC[C@H]1C(=O)N[C@@H](CC(=O)O)C(=O)NCC(=O)N[C@@H](CCCNC(=N)N)C(=O)N2` (HELM PEPTIDE1{C.F.P.D.G.R.C.Y.R.S.K.P.P.I}$PEPTIDE1,PEPTIDE1,1:R3-7:R3|PEPTIDE1,PEPTIDE1,1:R1-14:R2$$$V2.0): the pKi is 8.08.
Next, `CC[C@H](C)[C@@H]1NC(=O)[C@@H]2CCCN2C(=O)[C@@H]2CCCN2C(=O)[C@H](CCCCN)NC(=O)[C@H](CO)NC(=O)[C@H](CCCCN)NC(=O)[C@H](Cc2ccccc2)NC(=O)[C@@H]2CSSC[C@H](NC1=O)C(=O)N[C@@H](Cc1ccccc1)C(=O)N1CCC[C@H]1C(=O)N[C@@H](CC(=O)O)C(=O)NCC(=O)N[C@@H](CCCNC(=N)N)C(=O)N2` (HELM PEPTIDE1{C.F.K.S.K.P.P.I.C.F.P.D.G.R}$PEPTIDE1,PEPTIDE1,1:R3-9:R3|PEPTIDE1,PEPTIDE1,1:R1-14:R2$$$V2.0): 9.21; `CC[C@H](C)[C@@H]1NC(=O)[C@@H]2CCCN2C(=O)[C@@H]2CCCN2C(=O)[C@H]([C@@H](C)CC)NC(=O)[C@H](CO)NC(=O)[C@H](CCCNC(=N)N)NC(=O)[C@H]([C@@H](C)O)NC(=O)[C@@H]2CSSC[C@H](NC1=O)C(=O)N[C@@H](Cc1ccccc1)C(=O)N1CCC[C@H]1C(=O)N[C@@H](CC(=O)O)C(=O)NCC(=O)N[C@@H](CCCNC(=N)N)C(=O)N2` (HELM PEPTIDE1{C.F.P.D.G.R.C.T.R.S.I.P.P.I}$PEPTIDE1,PEPTIDE1,1:R3-7:R3|PEPTIDE1,PEPTIDE1,1:R1-14:R2$$$V2.0): 6.92.
On to `N=C(N)NCCC[C@@H]1NC(=O)CNC(=O)[C@H](CC(=O)O)NC(=O)[C@@H]2CCCN2C(=O)[C@H](Cc2ccccc2)NC(=O)[C@@H]2CSSC[C@H](NC1=O)C(=O)N[C@@H](Cc1ccc(O)cc1)C(=O)N[C@@H](CCCCN)C(=O)N[C@@H](CO)C(=O)N[C@@H](CCCCN)C(=O)N1CCC[C@H]1C(=O)N1CCC[C@H]1C(=O)N[C@@H](CCC(N)=O)C(=O)N2` (HELM PEPTIDE1{C.F.P.D.G.R.C.Y.K.S.K.P.P.Q}$PEPTIDE1,PEPTIDE1,1:R3-7:R3|PEPTIDE1,PEPTIDE1,1:R1-14:R2$$$V2.0), for which the pKi was 8.74.
The same measure for `CC[C@H](C)[C@@H]1NC(=O)[C@@H]2CCCN2C(=O)[C@@H]2CCCN2C(=O)[C@H](CCCCN)NC(=O)[C@H](CO)NC(=O)[C@H](CCCCN)NC(=O)[C@H](Cc2c[nH]c3ccccc23)NC(=O)[C@@H]2CSSC[C@H](NC1=O)C(=O)N[C@@H](Cc1ccccc1)C(=O)N1CCC[C@H]1C(=O)N[C@@H](CC(=O)O)C(=O)NCC(=O)N[C@@H](CCCNC(=N)N)C(=O)N2` (HELM PEPTIDE1{C.F.P.D.G.R.C.W.K.S.K.P.P.I}$PEPTIDE1,PEPTIDE1,1:R3-7:R3|PEPTIDE1,PEPTIDE1,1:R1-14:R2$$$V2.0): 9.18; for `CC[C@H](C)[C@@H]1NC(=O)[C@@H]2CCCN2C(=O)[C@@H]2CCCN2C(=O)[C@H](CCCNC(=N)N)NC(=O)[C@H](CO)NC(=O)[C@H](CCCCN)NC(=O)[C@H]([C@@H](C)O)NC(=O)[C@@H]2CSSC[C@H](NC1=O)C(=O)N[C@@H](Cc1ccccc1)C(=O)N1CCC[C@H]1C(=O)N[C@@H](CC(=O)O)C(=O)NCC(=O)N[C@@H](CCCNC(=N)N)C(=O)N2` (HELM PEPTIDE1{C.F.P.D.G.R.C.T.K.S.R.P.P.I}$PEPTIDE1,PEPTIDE1,1:R3-7:R3|PEPTIDE1,PEPTIDE1,1:R1-14:R2$$$V2.0): 8.70.
For the molecule `N=C(N)NCCC[C@@H]1NC(=O)CNC(=O)[C@H](CC(=O)O)NC(=O)[C@@H]2CCCN2C(=O)[C@H](Cc2ccccc2)NC(=O)[C@@H]2CSSC[C@H](NC1=O)C(=O)N[C@@H](Cc1ccc(O)cc1)C(=O)N[C@@H](CCCCN)C(=O)N[C@@H](CO)C(=O)N[C@@H](CCCCN)C(=O)N1CCC[C@H]1C(=O)N1CCC[C@H]1C(=O)N[C@@H](CC(N)=O)C(=O)N2` (HELM PEPTIDE1{C.F.P.D.G.R.C.Y.K.S.K.P.P.N}$PEPTIDE1,PEPTIDE1,1:R3-7:R3|PEPTIDE1,PEPTIDE1,1:R1-14:R2$$$V2.0), the pKi was 9.18.
Next, `N=C(N)NCCC[C@@H]1NC(=O)CNC(=O)[C@H](CC(=O)O)NC(=O)[C@@H]2CCCN2C(=O)[C@H](Cc2ccccc2)NC(=O)[C@@H]2CSSC[C@H](NC1=O)C(=O)N[C@@H](Cc1ccc(O)cc1)C(=O)N[C@@H](CCCCN)C(=O)N[C@@H](CO)C(=O)N[C@@H](CCCCN)C(=O)N1CCC[C@H]1C(=O)N1CCC[C@H]1C(=O)N[C@@H](CCCCN)C(=O)N2` (HELM PEPTIDE1{C.F.P.D.G.R.C.Y.K.S.K.P.P.K}$PEPTIDE1,PEPTIDE1,1:R3-7:R3|PEPTIDE1,PEPTIDE1,1:R1-14:R2$$$V2.0): 8.60; `CC[C@H](C)[C@@H]1NC(=O)[C@@H]2CCCN2C(=O)[C@@H]2CCCN2C(=O)[C@H](CCCNC(=N)N)NC(=O)[C@H](CO)NC(=O)[C@H](CCCCN)NC(=O)[C@H](Cc2ccc(O)cc2)NC(=O)[C@@H]2CSSC[C@H](NC1=O)C(=O)N[C@@H](Cc1ccccc1)C(=O)N1CCC[C@H]1C(=O)N[C@@H](CC(N)=O)C(=O)NCC(=O)N[C@@H](CCCNC(=N)N)C(=O)N2` (HELM PEPTIDE1{C.F.P.N.G.R.C.Y.K.S.R.P.P.I}$PEPTIDE1,PEPTIDE1,1:R3-7:R3|PEPTIDE1,PEPTIDE1,1:R1-14:R2$$$V2.0): 8.92; `CC[C@H](C)[C@@H]1NC(=O)[C@@H]2CCCN2C(=O)[C@@H]2CCCN2C(=O)[C@H](CCCNC(=N)N)NC(=O)[C@H](CO)NC(=O)[C@H](CCCCN)NC(=O)[C@H](Cc2ccc(O)cc2)NC(=O)[C@@H]2CSSC[C@H](NC1=O)C(=O)N[C@@H](Cc1ccccc1)C(=O)N1CCC[C@H]1C(=O)N[C@@H](CCC(=O)O)C(=O)NCC(=O)NC(CCCCNC(=N)N)C(=O)N2` (some centres not stated) (HELM PEPTIDE1{C.F.P.E.G.[N=C(N)NCCCCC(N[*:1])C(=O)[*:2]].C.Y.K.S.R.P.P.I}$PEPTIDE1,PEPTIDE1,1:R3-7:R3|PEPTIDE1,PEPTIDE1,1:R1-14:R2$$$V2.0): 8.96.
Molecule `N=C(N)NCCC[C@@H]1NC(=O)CNC(=O)[C@H](CC(=O)O)NC(=O)[C@@H]2CCCN2C(=O)[C@H](Cc2ccccc2)NC(=O)[C@@H]2CSSC[C@H](NC1=O)C(=O)N[C@@H](Cc1ccc(O)cc1)C(=O)N[C@@H](CCCCN)C(=O)N[C@@H](CO)C(=O)N[C@@H](CCCCN)C(=O)N1CCC[C@H]1C(=O)N1CCC[C@H]1C(=O)N[C@@H](CCCNC(=N)N)C(=O)N2` (HELM PEPTIDE1{C.F.P.D.G.R.C.Y.K.S.K.P.P.R}$PEPTIDE1,PEPTIDE1,1:R3-7:R3|PEPTIDE1,PEPTIDE1,1:R1-14:R2$$$V2.0) gave a pKi of 8.33.
